# Laboratory results as given in patent US7067619B2, “Integrin-binding peptides” (La Jolla Cancer Research Foundation, priority 1993, dated 2006).
# pIC50: −log10 of the molar value. Read-outs that look alike come from different tables or passages of the source. Bridge positions count the residues as written; N and C are the ends. Ends that are not written are not given here.
# Tests used:
# α5β1 integrin [1] = experiment: Cell attachment to immobilized […] peptide (B2/α27 vs B2/Cl cells); type: cell-based, human; conditions: FIG. 8
# Source text: (§1) Cell lines expressing fibronectin-binding integrins were used to determine peptide activities against these integrins in the cell attachment assay described by Ruoslahti et al., Meth. Enzymol., 144:803–831 (1982), which is incorporated herein by reference. Human plasma fibronectin was iodinated as described by Morla and Ruoslahti, J. Cell Biol., 118:421–429 (1992), which is incorporated herein by reference. Vitronectin was obtained from Telios Pharmaceuticals (San Diego, Calif.). […] Peptide was coated on plastic by incubating at 37° C. for 2 hours in phosphate buffered saline containing 0.25% glutaraldehyde to crosslink the peptide. Free binding sites on the plastic were blocked using BSA. Approximately 1×10^5 cells per well were allowed to attach for 1 hour in the presence or absence of competing peptides. Bound cells were quantitated by staining with 0.1% amido black.
# In addition to the inhibition of cell attachment to natural ligands, attachment and inhibition assays were performed using the […] [SEQ ID NO:6] peptide as substrate. The microliter well were coated with […] [SEQ ID NO:6] using glutaraldehyde as described above. Briefly, peptide was coated on plastic by incubating at 37° C. for 2 hours in phosphate buffered saline containing 0.25% glutaraldehyde to crosslink the peptide and free binding sites on the plastic were blocked using BSA. The wells were then saturated with BSA followed by the addition of 50,000 B2/α27 or B2/Cl cells in the presence or absence of the indicated inhibitor. […] Bound cells were quantitated by staining with 0.1% amido black.
# α5β1 integrin [2] = target: T1, α5β1 integrin (Homo sapiens, UniProt P05556+P08648); experiment: Inhibition of peptide-displaying phage binding to α5β1 integrin by synthetic peptides
# T1 construct: The αvβ3, αvβ5 and α5β1 integrins were isolated from human placental extracts; from tissue; host or cells: human placenta
# T1 sequence (P08648 42-894 limits assumed): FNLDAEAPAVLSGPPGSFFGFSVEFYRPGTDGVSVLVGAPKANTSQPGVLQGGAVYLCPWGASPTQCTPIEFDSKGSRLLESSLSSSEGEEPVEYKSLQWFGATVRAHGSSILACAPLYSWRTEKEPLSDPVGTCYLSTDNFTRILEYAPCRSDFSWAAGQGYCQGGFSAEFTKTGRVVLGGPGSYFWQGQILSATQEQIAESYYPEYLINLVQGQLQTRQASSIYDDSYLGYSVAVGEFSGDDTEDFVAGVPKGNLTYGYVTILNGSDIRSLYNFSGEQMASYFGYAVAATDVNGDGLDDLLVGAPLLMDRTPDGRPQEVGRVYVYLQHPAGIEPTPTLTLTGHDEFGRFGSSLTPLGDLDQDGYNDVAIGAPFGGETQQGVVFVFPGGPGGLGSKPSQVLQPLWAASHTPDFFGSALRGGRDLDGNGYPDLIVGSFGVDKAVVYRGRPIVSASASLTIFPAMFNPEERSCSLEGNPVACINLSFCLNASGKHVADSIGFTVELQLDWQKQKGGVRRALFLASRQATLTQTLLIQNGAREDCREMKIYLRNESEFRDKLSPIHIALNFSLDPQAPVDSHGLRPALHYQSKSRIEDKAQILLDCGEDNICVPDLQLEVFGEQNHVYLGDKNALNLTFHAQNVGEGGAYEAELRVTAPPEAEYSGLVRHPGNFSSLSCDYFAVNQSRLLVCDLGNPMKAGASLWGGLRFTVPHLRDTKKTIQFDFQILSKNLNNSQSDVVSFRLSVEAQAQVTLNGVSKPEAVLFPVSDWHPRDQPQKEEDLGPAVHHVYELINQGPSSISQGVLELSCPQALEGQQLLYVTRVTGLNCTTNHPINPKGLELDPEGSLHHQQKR
# T1 sequence (P08648 895-1049 partner limits assumed): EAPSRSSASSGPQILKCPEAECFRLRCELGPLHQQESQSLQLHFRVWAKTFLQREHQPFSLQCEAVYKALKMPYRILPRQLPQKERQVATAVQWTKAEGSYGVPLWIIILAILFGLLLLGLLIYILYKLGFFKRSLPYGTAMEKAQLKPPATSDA
# T1 sequence (P05556 21-798): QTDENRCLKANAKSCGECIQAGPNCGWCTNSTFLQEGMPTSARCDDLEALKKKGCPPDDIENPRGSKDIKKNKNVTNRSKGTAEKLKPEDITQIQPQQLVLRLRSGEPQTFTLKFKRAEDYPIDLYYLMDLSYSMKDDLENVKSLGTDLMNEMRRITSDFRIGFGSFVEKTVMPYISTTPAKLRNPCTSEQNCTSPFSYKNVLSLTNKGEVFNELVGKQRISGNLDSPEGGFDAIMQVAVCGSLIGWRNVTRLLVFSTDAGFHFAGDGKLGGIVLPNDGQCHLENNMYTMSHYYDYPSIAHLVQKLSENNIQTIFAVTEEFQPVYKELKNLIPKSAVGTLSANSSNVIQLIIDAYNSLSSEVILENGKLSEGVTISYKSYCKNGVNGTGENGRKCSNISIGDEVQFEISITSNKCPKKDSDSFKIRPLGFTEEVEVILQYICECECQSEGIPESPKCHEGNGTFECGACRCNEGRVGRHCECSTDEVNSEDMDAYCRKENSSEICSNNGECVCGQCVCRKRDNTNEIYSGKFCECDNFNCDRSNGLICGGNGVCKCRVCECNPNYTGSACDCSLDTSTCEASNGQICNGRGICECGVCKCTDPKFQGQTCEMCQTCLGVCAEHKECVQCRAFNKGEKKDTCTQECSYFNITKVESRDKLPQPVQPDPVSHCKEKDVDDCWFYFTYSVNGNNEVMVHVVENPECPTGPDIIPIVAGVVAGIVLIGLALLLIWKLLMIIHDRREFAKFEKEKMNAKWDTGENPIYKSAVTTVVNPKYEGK
# Protocol: Phage clone containing the RGDGW [SEQ ID NO:9] sequence was incubated for 1 hour in integrin-coated microliter wells in the presence of the competing peptides. After extensive washing, the phage remained bound were determined as described in Example XII.
# (§2) In addition, most of the phage-binding activity in the αvβ3 preparation was captured into microliter wells coated with antibodies against the αv or β3 subunits as described previously (Koivunen et al., J. Biol. Chem., 268:20205–10 (1993). The αIIbβ3 integrin was isolated from outdated platelets (Pytela et al., Science, 231:1559–1562 (1986)).
# (§3) Binding of individual cloned phage to integrins was studied in microliter wells as described in Koivunen et al., J. Cell. Biol., 124:373–380 (1994). Phage binding to α5β1 and αvβ3 were assayed in TBS buffer containing 1% BSA and 1 mM MnCl2 and binding to αvβ5 in the presence of 1 mM CaCl2. Phage that were bound were determined by their ability to infect F-pilus positive K91kan bacteria. Bacteria were grown overnight in microliter wells in the presence of tetracycline and the absorbance indicative of bacterial growth was read at 600 nm with an ELISA plate reader.
# Relative affinities of the […] [SEQ ID NO:12] and CRGDC [SEQ ID NO:37] peptides were determined by inhibition of binding of peptide-displaying phage to α5β1 integrin. Peptide-displaying phage were constructed as described by Scott and Smith, Science 249:386–390 (1990) and Example IV. Microwell plates were coated with various integrins as described by Koivunen et al., J. Biol. Chem., 268:20205–10 (1993) and Example II.
# The binding of […] [SEQ ID NO:12]-containing peptide ligands to α5β1 integrin was performed as follows. RRETAWA [SEQ ID NO:8]-displaying phage were incubated for 1 hour in the presence of various concentrations of the cyclic peptides containing […] [SEQ ID NO:12] and containing CRGDC [SEQ ID NO:37] in microliter wells coated with the α5β1 integrin. Binding was quantitated by adding K91kan bacteria directly to the wells and growing the bacteria overnight at room temperature (Smith and Scott, Meth. Enzymol., 217:228–257 (1993), which is incorporated herein by reference).
# Additional peptide motifs were tested as follows. ELRGDGW-displaying [SEQ ID NO:4] phage were added together with various concentrations of the cyclic peptides containing […] [SEQ ID NO:12] and containing CRGDC [SEQ ID NO:37] into microliter wells coated with the α5β1 integrin, incubated for 1 hour at room temperature and binding to wells was quantitated.
# α5β1 integrin [3] = experiment: Inhibition of α5β1-mediated cell attachment to fibronectin; type: cell-based, human
# Source text: Cell lines expressing different integrins were used to examine peptide inhibition of integrin function. A human melanoma cell line, C8161, a fibroblast cell line, WI-38, and an osteosarcoma cell line, MG-63 (described by Seftor et al., Canc. Res., 53:3411–3415 (1993); Vogel et al., J. Biol. Chem., 265:5934–5937 (1990); and Pytela et al. (1985), supra, respectively, each of which is incorporated herein by reference) attach to fibronectin through α5β1 integrin, as does B2/α27, a CHO cell line transfected with human α5. B2/C1, the control parental CHO line (Bauer et al., J. Cell. Biol. 116:477–487 (1992), which is incorporated herein by reference), attaches via […]. CHO cells C11 and NIH 3T3 cells express the endogenous Chinese hamster and mouse α5β1 integrins, respectively. The human melanoma cells, A375-M, attach to fibronectin through both α5β1 and α4β1 integrins (Mould et al., J. Biol. Chem. 265:4020–4024 (1990), which is incorporated herein by reference). CHO cell line B2/v7 express the αvβ1 integrin (Zhang et al., J. Cell. Biol. 122:235–242 (1993), which is incorporated herein by reference). The vitronectin-binding integrins […] and αvβ3 were assayed using the cell line HT-29 and IMR-90, respectively (Koivunen et al., J. Biol. Chem. 268: 20205–20210 (1993)).
# as §1
# Inhibition of cell attachment mediated by either fibronectin- or vitronectin-binding integrins was performed to determine peptide specificity in a biologically relevant system. The assays and cell lines were performed as described above. FIGS. 5 and 6 show the results of cell attachment mediated by the fibronectin binding integrins α5β1 and αvβ1.
# α5β1 integrin [4] = target: T1, α5β1 integrin; experiment: Panning and binding of peptide-displaying phage on α5β1 integrin; conditions: phage-displayed sequence
# Source text: as §2
# Peptide libraries were constructed in fuse 5 vector (Scott and Smith, Science 249:386–390 (1990)) as described previously (Koivunen et al., J. Cell Biol., 124:373–380 (1994). The CX5C, CX6C, CX7C and CX9 [SEQ ID NOs:39–42, respectively] libraries were prepared using synthetic oligonucleotides containing core sequences TGT(NNK)5TGT, TGT(NNK)6TGT, TGT(NNK)7TGT and TGT(NNK)9 [SEQ ID NOS:43–46, respectively] (N=equal molar mixture of A, C, G, T; K=G or T), respectively. The oligonucleotides were made double-stranded by PCR amplification with 5 cycles, purified and ligated to the N-terminus of pIII gene of fuse 5 vector. The CX5C, CX6C, CX7C and CX9 [SEQ ID NOS:39–42, respectively] vectors were transfected into MC1061 cells using 16, 60, 263 and 250 electroporations, respectively. Bacteria were cultured for 24 hours in the presence of 20 μg/ml of tetracycline, and phage were collected from the supernatant by precipitation twice with polyethylene glycol. The phage pellets were dissolved at approximately 10^13 transducing units (TU)/ml in TBS buffer containing 0.02% NaN3 and stored at 4° C. The yields of the CX5C, CX6C, CX7C and CX9 [SEQ ID NOS:39–42, respectively] primary libraries were 3.5×10^8, 1.1×10^9, 4.5×10^5 and 3.5×10^8 clones, respectively. […]
# as §3, with “Biol., 124:373–380 (1994). Phage binding to α5β1 and αvβ3 were assayed in TBS buffer containing 1% BSA and 1 mM MnCl2 and binding to αvβ5 in the presence of 1 mM CaCl2.” left out
# αvβ3 integrin = αvβ3 integrin (Homo sapiens, UniProt P05106+P06756); experiment: Inhibition of peptide-displaying phage binding to αvβ3 integrin by synthetic peptides; design: The αvβ3, αvβ5 and α5β1 integrins were isolated from human placental extracts; from tissue; host or cells: human placenta; conditions: CRGDCL-displaying phage, αvβ3-coated wells; FIG. 3 (result sentence prints α5β1)
# αvβ3 integrin, sequence (P06756 31-889 limits assumed): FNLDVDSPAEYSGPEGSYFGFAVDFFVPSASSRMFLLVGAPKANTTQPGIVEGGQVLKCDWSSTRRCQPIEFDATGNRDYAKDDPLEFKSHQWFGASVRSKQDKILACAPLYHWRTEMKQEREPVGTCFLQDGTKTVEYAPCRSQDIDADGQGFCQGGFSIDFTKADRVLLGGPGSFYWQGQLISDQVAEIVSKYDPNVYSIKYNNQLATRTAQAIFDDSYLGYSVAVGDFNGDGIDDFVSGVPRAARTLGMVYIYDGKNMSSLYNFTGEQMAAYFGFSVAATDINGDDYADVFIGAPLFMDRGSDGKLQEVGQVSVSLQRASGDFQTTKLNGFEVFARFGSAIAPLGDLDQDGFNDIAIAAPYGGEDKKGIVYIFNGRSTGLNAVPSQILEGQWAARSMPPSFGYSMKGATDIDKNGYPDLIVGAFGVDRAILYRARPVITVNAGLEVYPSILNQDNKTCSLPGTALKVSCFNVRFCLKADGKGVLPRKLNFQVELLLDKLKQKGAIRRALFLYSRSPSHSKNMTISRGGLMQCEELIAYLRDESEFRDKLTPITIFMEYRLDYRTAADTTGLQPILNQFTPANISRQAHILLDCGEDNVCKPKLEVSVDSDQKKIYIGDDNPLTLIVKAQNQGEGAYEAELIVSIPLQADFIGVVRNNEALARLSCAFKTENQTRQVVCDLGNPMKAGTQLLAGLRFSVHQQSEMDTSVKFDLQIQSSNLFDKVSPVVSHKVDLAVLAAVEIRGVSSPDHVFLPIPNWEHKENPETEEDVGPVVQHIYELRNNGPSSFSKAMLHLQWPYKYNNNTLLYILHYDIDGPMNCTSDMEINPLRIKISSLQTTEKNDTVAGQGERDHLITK
# αvβ3 integrin, sequence (P06756 891-1048 partner limits assumed): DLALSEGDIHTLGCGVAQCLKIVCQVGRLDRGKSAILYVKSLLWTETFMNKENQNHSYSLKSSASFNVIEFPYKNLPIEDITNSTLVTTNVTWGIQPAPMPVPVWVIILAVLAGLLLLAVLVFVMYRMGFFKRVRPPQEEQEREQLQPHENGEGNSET
# αvβ3 integrin, sequence (P05106 27-788): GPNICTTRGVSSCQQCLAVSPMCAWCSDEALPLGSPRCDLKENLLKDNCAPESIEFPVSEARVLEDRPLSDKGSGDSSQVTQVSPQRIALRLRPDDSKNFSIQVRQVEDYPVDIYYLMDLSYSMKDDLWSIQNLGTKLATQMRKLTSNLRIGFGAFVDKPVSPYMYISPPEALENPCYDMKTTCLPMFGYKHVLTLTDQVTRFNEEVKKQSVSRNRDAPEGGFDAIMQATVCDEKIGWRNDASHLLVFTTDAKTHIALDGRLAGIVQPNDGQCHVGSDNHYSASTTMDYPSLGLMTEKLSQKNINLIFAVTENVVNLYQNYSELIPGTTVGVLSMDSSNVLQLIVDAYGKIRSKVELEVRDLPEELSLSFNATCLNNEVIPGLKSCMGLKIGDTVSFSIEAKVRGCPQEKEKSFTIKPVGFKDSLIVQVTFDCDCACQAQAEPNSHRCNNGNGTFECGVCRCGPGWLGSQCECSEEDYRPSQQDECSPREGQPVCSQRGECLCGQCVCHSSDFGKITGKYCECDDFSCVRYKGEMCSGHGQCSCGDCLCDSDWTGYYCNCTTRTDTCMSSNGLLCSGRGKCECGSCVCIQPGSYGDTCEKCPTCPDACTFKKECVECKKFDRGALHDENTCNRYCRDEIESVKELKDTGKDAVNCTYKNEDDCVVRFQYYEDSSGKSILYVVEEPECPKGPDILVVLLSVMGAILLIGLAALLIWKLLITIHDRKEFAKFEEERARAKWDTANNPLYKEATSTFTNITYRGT
# Source text: as §2, §3
# The ability of […] [SEQ ID NO:12] and CRGDC [SEQ ID NO:37] containing peptides to inhibit binding of CRGDCL-displaying [SEQ ID NO:7] phage to the microwells coated with αvβ3 integrin also was examined. CRGDCL-displaying [SEQ ID NO:7] phage were added to a well and either cyclic […] [SEQ ID NO:6] or cyclic […] [SEQ ID NO:5] was added to compete for binding. Binding was quantitated as described above.
# α4β1 = α4β1 (Homo sapiens, UniProt P05556+P13612); conditions: Nowlin et al., J. Biol. Chem. 268:20352–59 (1993); cited from earlier work
# α4β1, sequence (P13612 34-1032): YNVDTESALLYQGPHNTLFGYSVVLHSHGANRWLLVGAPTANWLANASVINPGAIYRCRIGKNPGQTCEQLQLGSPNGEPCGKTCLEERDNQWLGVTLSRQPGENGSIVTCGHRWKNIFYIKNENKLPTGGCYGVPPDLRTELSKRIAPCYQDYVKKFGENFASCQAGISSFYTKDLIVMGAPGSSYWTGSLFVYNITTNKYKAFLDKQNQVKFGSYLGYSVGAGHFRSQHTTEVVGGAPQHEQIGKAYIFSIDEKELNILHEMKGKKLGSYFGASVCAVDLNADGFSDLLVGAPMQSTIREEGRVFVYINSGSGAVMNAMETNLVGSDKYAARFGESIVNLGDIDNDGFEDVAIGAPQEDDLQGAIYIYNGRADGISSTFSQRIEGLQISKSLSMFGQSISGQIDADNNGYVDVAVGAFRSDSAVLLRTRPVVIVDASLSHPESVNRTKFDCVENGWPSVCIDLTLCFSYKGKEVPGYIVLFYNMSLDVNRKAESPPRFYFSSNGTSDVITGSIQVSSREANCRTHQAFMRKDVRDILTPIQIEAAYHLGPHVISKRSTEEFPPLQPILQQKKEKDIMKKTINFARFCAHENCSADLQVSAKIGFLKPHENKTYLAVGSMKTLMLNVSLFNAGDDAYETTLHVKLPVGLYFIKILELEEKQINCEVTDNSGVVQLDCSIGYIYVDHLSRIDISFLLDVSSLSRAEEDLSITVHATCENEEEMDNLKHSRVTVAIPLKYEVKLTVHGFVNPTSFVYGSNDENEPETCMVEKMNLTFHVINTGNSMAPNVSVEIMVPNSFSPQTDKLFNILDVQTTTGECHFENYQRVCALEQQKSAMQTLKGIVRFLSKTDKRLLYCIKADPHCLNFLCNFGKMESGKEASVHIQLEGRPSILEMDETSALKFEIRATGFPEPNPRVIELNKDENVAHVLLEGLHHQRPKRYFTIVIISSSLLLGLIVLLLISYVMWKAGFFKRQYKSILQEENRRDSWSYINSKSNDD
# α4β1, sequence (P05556 21-798): as the sequence (P05556 21-798) above
# α5β1 = α5β1 (Homo sapiens, UniProt P05556+P08648); conditions: Nowlin et al., J. Biol. Chem. 268:20352–59 (1993); cited from earlier work
# α5β1, sequence (P08648 42-894 limits assumed): as the sequence (P08648 42-894 limits assumed) above
# α5β1, sequence (P08648 895-1049 partner limits assumed): as the sequence (P08648 895-1049 partner limits assumed) above
# α5β1, sequence (P05556 21-798): as the sequence (P05556 21-798) above
molecule,measurement,setting,value
"O=C(O)CN(CCN(CC(=O)O)CC(=O)O)CC(=O)O [EDTA, reference compound]",inhibition of B2/α27 attachment to immobilized RRETAWA-containing peptide,α5β1 integrin [1]; inhibitor at 10 mM,inhibited
CRGDGWC [A*CRGDGWC*G],activity in inhibiting binding of RGD-displaying phage to α5β1 relative to *CRGDC*,"α5β1 integrin [2]; RGDGW phage, more active than *CRGDC*, FIG. 9",5 fold
same,pIC50,"α5β1 integrin [3]; B2/a27 cells (human α5, CHO β1), FIG. 11, read-out: IC50 of inhibition of attachment of B2/a27 cells to fibronectin",5.22
same,potency relative to *CRGDC* in B2/a27 attachment to fibronectin,"α5β1 integrin [3]; B2/a27 cells, more potent than *CRGDC*",7 fold
same,potency relative to *CRRETAWAC* in B2/a27 attachment to fibronectin,"α5β1 integrin [3]; B2/a27 cells, more potent than *CRRETAWAC*",7 fold
same,potency relative to *CRRETAWAC* in MG 63 cells,"α5β1 integrin [3]; MG 63 cells, more potent than *CRRETAWAC*",4 fold
same,pIC50,"α5β1 integrin [3]; MG 63 cells, read-out: IC50 of inhibition of attachment of MG 63 cells to fibronectin",5.00
same,improvement in activity compared to linear GRGDSP,α5β1 integrin [3]; α5β1-mediated attachment to fibronectin,about 50 fold
same,binding of peptide-displaying phage to the α5β1 integrin,α5β1 integrin [4],among the best binders
CRSETYWKC,binding of peptide-displaying phage to the α5β1 integrin,α5β1 integrin [4],selectively bind
GACRGDCLGA (disulfide 3-7 (inferred)) [reference compound],inhibition of binding of ELRGDGW-displaying phage to α5β1 integrin,"α5β1 integrin [2]; ELRGDGW-displaying phage, CRRETAWAC compared with CRGDC, FIG. 2",approximately the same degree
same,inhibition of B2/α27 attachment to immobilized RRETAWA-containing peptide,α5β1 integrin [1]; inhibitor at 1 mM,inhibited
same,inhibition of binding of CRGDCL-displaying phage to integrin-coated wells,αvβ3 integrin,completely inhibited
GRGESP [reference compound],effect on RRETAWA-displaying phage binding to α5β1,"α5β1 integrin [2]; RRETAWA-displaying phage, FIG. 4",no effect
same,effect on α5β1-mediated cell attachment to fibronectin,"α5β1 integrin [3]; B2/α27 cells, FIG. 5",no effect
RCD(ThioP)C,binding to α4β1,α4β1,high affinity
same,binding to α5β1,α5β1,high affinity
